Laboratory results as given in ChEMBL document CHEMBL1909046, “DrugMatrix in vitro pharmacology data”.

Key:
Carbonic anhydrase 2 = Carbonic anhydrase 2 (Homo sapiens, UniProt P00918); assay: DRUGMATRIX: Carbonic Anhydrase II enzyme inhibition (substrate: 4-Nitrophenyl acetate (4-NPA)); format: tissue-based, Erythrocyte; conditions: erythrocyte; Not Active = under 50% inhibition at 10 µM
Cathepsin G = target: T1, Cathepsin G (Homo sapiens, UniProt P08311); format: tissue-based; conditions: neutrophil;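 also: inhibition of Cathepsin G enzyme activity, tested on an AMC-conjugated peptide substrate; in other assays of this panel Not Active means under 50% inhibition at 10 µM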
T1 sequence (P08311 whole entry): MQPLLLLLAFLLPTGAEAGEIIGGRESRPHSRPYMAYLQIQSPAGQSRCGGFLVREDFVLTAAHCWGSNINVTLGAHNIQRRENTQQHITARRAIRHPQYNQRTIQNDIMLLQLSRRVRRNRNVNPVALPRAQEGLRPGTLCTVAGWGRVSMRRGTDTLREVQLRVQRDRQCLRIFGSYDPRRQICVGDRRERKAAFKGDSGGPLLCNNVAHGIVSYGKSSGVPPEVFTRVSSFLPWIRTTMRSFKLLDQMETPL

Melanocortin receptor 5 = Melanocortin receptor 5 (Homo sapiens, UniProt P33032); format: cell membranes, HEK293, Membrane; conditions: hek293; also: in other assays of this panel Not Active means under 50% inhibition at 10 µM
[1] = target: Sodium-dependent dopamine transporter (Homo sapiens, UniProt Q01959); assay: DRUGMATRIX: Dopamine Transporter radioligand binding (ligand: [125I] RTI-55); format: cell membranes, CHO-K1, Membrane; conditions: cho-k1; Not Active = under 50% inhibition at 10 µM
[2] = target: T2, Nitric oxide synthase, inducible (Mus musculus, UniProt P29477); design: species or system Escherichia coli;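 also: inhibition of iNOS enzyme activity measured with L-arginine as substrate; in other assays of this panel Not Active means under 50% inhibition at 10 µM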
T2 sequence (P29477 whole entry): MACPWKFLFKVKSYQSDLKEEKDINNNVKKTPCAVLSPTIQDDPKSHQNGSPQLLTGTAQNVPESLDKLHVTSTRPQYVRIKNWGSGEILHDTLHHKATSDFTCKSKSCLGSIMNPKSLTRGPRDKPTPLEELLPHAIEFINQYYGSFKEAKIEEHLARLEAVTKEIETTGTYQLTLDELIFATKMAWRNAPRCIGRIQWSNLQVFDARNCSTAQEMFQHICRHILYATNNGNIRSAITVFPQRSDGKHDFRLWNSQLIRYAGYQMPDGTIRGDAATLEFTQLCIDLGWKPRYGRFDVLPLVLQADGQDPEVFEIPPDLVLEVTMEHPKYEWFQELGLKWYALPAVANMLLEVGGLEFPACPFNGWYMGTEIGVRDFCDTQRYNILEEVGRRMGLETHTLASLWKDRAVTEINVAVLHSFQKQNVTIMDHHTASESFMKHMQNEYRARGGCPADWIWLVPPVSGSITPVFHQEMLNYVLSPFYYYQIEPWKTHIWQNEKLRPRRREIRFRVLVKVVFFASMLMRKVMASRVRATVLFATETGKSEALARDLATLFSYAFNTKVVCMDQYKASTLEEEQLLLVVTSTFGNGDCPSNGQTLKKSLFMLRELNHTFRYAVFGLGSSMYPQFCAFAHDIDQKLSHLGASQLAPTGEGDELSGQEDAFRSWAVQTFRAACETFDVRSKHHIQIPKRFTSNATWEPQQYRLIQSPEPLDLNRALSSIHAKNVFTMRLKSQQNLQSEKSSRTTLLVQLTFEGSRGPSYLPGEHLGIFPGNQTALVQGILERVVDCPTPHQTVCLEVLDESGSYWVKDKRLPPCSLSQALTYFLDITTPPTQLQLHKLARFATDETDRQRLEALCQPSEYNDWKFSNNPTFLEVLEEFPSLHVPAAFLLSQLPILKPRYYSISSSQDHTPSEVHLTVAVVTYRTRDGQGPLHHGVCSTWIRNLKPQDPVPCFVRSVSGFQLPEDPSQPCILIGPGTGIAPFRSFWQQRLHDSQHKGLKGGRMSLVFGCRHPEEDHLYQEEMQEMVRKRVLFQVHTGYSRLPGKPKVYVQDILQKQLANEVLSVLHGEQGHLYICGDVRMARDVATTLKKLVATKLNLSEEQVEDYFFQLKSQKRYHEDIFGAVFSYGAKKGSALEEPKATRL

Cannabinoid receptor 1 = Cannabinoid receptor 1 (Homo sapiens, UniProt P21554); format: cell membranes, Membrane; conditions: chem-1; also: in other assays of this panel Not Active means under 50% inhibition at 10 µM
[3] = DRUGMATRIX: beta-Lactamase enzyme inhibition (substrate: Nitrocefin); design: species or system Bacillus cereus; conditions: Not Active = under 50% inhibition at 10 µM
B2 bradykinin receptor = target: T3, B2 bradykinin receptor (Homo sapiens, UniProt P30411); format: cell membranes, Membrane; conditions: chem-1; also: in other assays of this panel Not Active means under 50% inhibition at 10 µM
T3 sequence (P30411 whole entry): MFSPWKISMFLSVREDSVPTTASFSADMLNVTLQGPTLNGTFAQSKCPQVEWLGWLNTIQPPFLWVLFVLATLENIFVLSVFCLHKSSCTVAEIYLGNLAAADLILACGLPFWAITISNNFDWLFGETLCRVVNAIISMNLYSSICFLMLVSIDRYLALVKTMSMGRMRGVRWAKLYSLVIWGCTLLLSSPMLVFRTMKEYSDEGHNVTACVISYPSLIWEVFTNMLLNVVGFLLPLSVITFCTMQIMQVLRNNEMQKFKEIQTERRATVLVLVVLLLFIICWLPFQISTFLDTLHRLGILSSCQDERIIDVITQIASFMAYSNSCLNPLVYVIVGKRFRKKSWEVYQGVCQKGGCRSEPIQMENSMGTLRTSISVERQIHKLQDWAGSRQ

[4] = DRUGMATRIX: Tumor Necrosis Factor (TNF), Non-Selective radioligand binding (ligand: [125I] TNF-alpha); format: cell membranes, Membrane; conditions: u-937; Not Active = under 50% inhibition at 10 µM
[5] = DRUGMATRIX: Sigma2 radioligand binding (ligand: [3H] Ifenprodil); format: cell membranes, Rattus norvegicus, Wistar, Brain, Membrane; conditions: Not Active = under 50% inhibition at 10 µM
[6] = target: Platelet-activating factor receptor (Homo sapiens, UniProt P25105); assay: biochemical; format: tissue-based; conditions: platelet; also: in other assays of this panel Not Active means under 50% inhibition at 10 µM
Leukotriene C4 synthase = target: T4, Leukotriene C4 synthase (Cavia porcellus, UniProt A6XA80); assay: biochemical; format: tissue-based, Lung
T4 sequence (A6XA80 whole entry): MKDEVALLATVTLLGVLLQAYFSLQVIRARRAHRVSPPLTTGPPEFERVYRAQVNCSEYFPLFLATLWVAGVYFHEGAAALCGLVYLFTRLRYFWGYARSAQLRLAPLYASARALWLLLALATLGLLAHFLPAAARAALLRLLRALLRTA

Melanocortin receptor 5, sequence (P33032 whole entry): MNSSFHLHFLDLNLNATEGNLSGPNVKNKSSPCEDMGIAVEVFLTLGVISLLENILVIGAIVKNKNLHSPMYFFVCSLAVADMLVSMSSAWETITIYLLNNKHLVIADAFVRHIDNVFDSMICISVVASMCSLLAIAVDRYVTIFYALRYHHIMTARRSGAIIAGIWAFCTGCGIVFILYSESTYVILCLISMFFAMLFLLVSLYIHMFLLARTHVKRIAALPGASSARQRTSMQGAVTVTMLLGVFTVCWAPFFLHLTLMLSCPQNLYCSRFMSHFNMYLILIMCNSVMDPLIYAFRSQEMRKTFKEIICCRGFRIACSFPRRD
Sodium-dependent dopamine transporter, sequence (Q01959 whole entry): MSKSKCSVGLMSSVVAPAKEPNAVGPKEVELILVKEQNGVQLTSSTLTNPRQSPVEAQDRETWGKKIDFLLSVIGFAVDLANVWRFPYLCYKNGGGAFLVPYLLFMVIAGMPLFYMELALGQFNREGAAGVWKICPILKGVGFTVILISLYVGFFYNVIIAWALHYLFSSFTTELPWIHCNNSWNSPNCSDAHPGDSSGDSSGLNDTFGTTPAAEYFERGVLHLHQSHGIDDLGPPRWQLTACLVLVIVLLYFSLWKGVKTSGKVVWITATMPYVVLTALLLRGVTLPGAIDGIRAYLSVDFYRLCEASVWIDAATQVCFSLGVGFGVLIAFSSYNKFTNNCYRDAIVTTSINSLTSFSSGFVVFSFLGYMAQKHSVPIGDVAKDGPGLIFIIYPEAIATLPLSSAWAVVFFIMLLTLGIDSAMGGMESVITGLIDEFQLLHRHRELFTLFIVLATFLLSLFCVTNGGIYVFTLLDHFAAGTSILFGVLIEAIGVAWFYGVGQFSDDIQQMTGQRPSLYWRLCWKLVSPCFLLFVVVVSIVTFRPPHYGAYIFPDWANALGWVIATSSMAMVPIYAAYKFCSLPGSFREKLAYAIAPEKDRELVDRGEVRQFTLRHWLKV
Cannabinoid receptor 1, sequence (P21554 whole entry): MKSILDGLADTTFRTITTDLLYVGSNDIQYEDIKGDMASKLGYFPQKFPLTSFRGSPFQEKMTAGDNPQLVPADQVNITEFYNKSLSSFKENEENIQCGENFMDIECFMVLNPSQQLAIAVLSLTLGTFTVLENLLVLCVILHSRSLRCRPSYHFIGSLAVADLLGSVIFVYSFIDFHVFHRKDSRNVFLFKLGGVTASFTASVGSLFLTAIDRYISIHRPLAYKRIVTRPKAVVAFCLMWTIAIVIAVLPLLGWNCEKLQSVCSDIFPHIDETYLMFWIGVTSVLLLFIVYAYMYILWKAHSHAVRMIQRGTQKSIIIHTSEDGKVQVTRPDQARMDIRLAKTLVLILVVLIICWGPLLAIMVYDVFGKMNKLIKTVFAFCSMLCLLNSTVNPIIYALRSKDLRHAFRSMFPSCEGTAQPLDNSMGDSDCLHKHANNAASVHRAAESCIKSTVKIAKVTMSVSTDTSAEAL
Platelet-activating factor receptor, sequence (P25105 whole entry): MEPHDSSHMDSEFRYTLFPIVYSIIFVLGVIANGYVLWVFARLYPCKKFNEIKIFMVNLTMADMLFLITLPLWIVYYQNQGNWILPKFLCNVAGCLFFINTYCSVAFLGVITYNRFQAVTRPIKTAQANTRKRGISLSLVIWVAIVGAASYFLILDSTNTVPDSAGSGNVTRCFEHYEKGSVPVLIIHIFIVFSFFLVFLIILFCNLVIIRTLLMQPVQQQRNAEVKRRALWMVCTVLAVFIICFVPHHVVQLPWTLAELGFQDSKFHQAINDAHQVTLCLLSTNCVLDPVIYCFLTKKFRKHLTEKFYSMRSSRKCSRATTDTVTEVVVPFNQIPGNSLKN

Compound	IC50 (Carbonic anhydrase 2)	IC50 (Cathepsin G)	IC50 (Melanocortin receptor 5)	IC50 [1]	IC50 [2]	IC50 (Cannabinoid receptor 1)	IC50 [3]	Ki [3]	IC50 (B2 bradykinin receptor)	IC50 [4]	Ki [4]	IC50 [5]	Ki [5]	IC50 [6]	IC50 (Leukotriene C4 synthase)	IC50 ([5]; read-out: IC50) [nM]	Ki ([5]; read-out: Ki) [nM]
CC(=O)[C@@]1(O)CC[C@H]2[C@@H]3C[C@H](C)C4=CC(=O)C=C[C@]4(C)[C@@]3(F)[C@@H](O)C[C@@]21C [FLUOROMETHOLONE]	Not Active	Not Active	Not Active	Not Active	Not Active	Not Active	Not Active	Not Active	Not Active	Not Active	Not Active	Not Active	Not Active	Not Active	Not Active		
Nc1nc2c(ncn2COC(CO)CO)c(=O)[nH]1 [GANCICLOVIR]	Not Active	Not Active	Not Active	Not Active	Not Active	Not Active	Not Active	Not Active	Not Active	Not Active	Not Active	Not Active	Not Active	Not Active	Not Active		
O=C1CCc2cc(OCCCCc3nnnn3C3CCCCC3)ccc2N1 [CILOSTAZOL]	Not Active	Not Active	Not Active	Not Active	Not Active	Not Active	Not Active	Not Active	Not Active	Not Active	Not Active	Not Active	Not Active	Not Active	Not Active		
COCc1c(C(C)C)nc(C(C)C)c(/C=C/[C@@H](O)C[C@@H](O)CC(=O)O)c1-c1ccc(F)cc1 [CERIVASTATIN]	Not Active	Not Active	Not Active	Not Active	Not Active	Not Active	Not Active	Not Active	Not Active	Not Active	Not Active	Not Active	Not Active	Not Active	Not Active		
O=C(O)c1cn(C2CC2)c2cc(N3CCNCC3)c(F)cc2c1=O [CIPROFLOXACIN]	Not Active	Not Active	Not Active	Not Active	Not Active	Not Active	Not Active	Not Active	Not Active	Not Active	Not Active	Not Active	Not Active	Not Active	Not Active		
CC1(C)S[C@@H]2[C@H](NC(=O)[C@H](N)c3ccc(O)cc3)C(=O)N2[C@H]1C(=O)O [AMOXICILLIN]	Not Active	Not Active	Not Active	Not Active	Not Active	Not Active	Not Active	Not Active	Not Active	Not Active	Not Active	Not Active	Not Active	Not Active	Not Active		
CCOC(=O)OC(C)OC1=C(C(=O)Nc2ccccn2)N(C)S(=O)(=O)c2ccccc21 (stereo not given) [AMPIROXICAM]	Not Active	Not Active	Not Active	Not Active	Not Active	Not Active	Not Active	Not Active	Not Active	Not Active	Not Active	Not Active	Not Active	Not Active	Not Active		
NCC1(CC(=O)O)CCCCC1 [GABAPENTIN]	Not Active	Not Active	Not Active	Not Active	Not Active	Not Active	Not Active	Not Active	Not Active	Not Active	Not Active	Not Active	Not Active	Not Active	Not Active		
CCc1ccc(C(=O)C(C)CN2CCCCC2)cc1 (stereo not given) [EPERISONE]	Not Active	Not Active	Not Active	Not Active	Not Active	Not Active	Not Active	Not Active	Not Active	Not Active	Not Active			Not Active	Not Active	1060	655
CN1CCC[C@H]1c1cccnc1 [NICOTINE]	Not Active	Not Active	Not Active	Not Active	Not Active	Not Active	Not Active	Not Active	Not Active	Not Active	Not Active	Not Active	Not Active	Not Active	Not Active		
